In patent US20040053974A1, “Medicinal compositions containing diuretic and insulin resistance-improving agent” (priority 2000, published 2004):
Marks after values point to notes of the source that are not given here. Values belong to the compound of their own block, whether it stands above or below them.

Legend:
Type in all cases: in vivo, rat
[1] = test system: Zucker fatty rats; assay: Co-administration of furosemide or amiloride with compound A for 14 days: blood parameters, heart-weight, circulating serum volume; conditions: for blood dilution (decreases in hematocrit value and the number of red blood cells) caused by compound A / increases in circulating serum volume caused by compound A / increases in heart-weight caused by compound A: orally 14 days, 1 ml/kg of furosemide 100 mg/ml or amiloride 10 mg/ml
Experimental: Zucker fatty rats (7 weeks old, SLC, Shizuoka, Japan) were grouped as 5 rats a group. Mean body weight, plasma glucose and glyceride levels, hematocrit value, and the number of red blood cells in each group were similar among the groups. The rats were allowed to take food pellets (F2, Funabashi Farm) and water ad libitum. In the control group, the rats were given only food pellets, while the rest of rats were administered 5-[4-(6-methoxy-1-methyl-1H-benzimidazol-2-ylmethoxy)benzyl]thiazolidine-2,4-dione hydrochloride (suspended in 0.5% solution of carboxymethylcellulose (CMC)) at a volume of 1 ml/kg orally by gavage. In the groups of rats administered the above compound with furosemide (100 mg/ml, suspended in 0.5% CMC solution) or amiloride (10 mg/ml, suspended in distilled water), these diuretics were orally administered by gavage for 14 successive days at a volume of 1 ml/kg. After the final administration, the rats were fasted overnight, and their blood was collected from the tail vein with a capillary treated with heparin and EDTA on the 15th day.
Plasma glucose level and blood cell parameters were determined using an automatic analyzer (plasma glucose: Glucoloader GX-T, A&T Corp., blood cell parameters: K-1000, Sysmex Corporation, Kobe, Japan). Triglyceride was detected by the absorbance method with a kit (Triglyceride-E Test Wako, Wako Pure Chemical Industries, Ltd.). Concentrations of insulin and leptin were detected with RIA kits (Rat Insulin RIA Kit, Linco Research Inc.). Furthermore, circulating serum volume was determined by the dilution method using Evans blue.

[2] = test system: female Wistar rats; assay: Co-administration of furosemide with compound A: circulating serum volume, heart-weight, edema and hydrothorax (macroscopic observation)
Experimental: 5-[4-(6-Methoxy-1-methyl-1H-benzimidazol-2-ylmethoxy)benzyl]thiazolidine-2,4-dione hydrochloride (200 mg/kg) was repeatedly and orally administered by gavage for 3 or 7 successive days to female Wistar rats (7 weeks old, Charles River Japan, Inc.) and furosemide (120 mg/kg and 240 mg/kg) was dietarily administered during the period.

[3] = test system: female Wistar rats; assay: Heart-weight and circulating serum volume (Evans blue method) after repeated oral administration; conditions: for Ratio against control Heart-Weight / Ratio against control Circulating Serum volume: 200 mg/kg orally by gavage, female Wistar rats
Experimental: After 5-[4-(6-methoxy-1-methyl-1H-benzimidazol-2-ylmethoxy)benzyl]thiazolidine-2,4-dione hydrochloride (200 mg/kg) was repeatedly and orally administered by gavage for 3 or 7 successive days to female Wistar rats (7 weeks old, Charles River Japan, Inc.), circulating serum volume was determined by Evans blue methods and heart-weight recorded.

[4] = co-administered with compound A, Zucker fatty rats
[5] = Furosemide 120 mg/kg dietary, co-administered with Compound A 200 mg/kg orally, female Wistar rats
[6] = Furosemide 240 mg/kg dietary, co-administered with Compound A 200 mg/kg orally, female Wistar rats
[7] = furosemide 120 and 240 mg/kg dietary co-administered with compound A 200 mg/kg
[8] = furosemide 120 and 240 mg/kg dietary co-administered with compound A 200 mg/kg, FIG. 1
[9] = Compound A 200 mg/kg orally, Furosemide 0, female Wistar rats
[10] = 7 successive days, n = 12, p < 0.01
[11] = 200 mg/kg orally, after administration for both 3 and 7 days
[12] = orally by gavage, 14 successive days, Zucker fatty rats, FIG. 2

Structure (SMILES): N=C(N)NC(=O)c1nc(Cl)c(N)nc1N [amiloride]
ameliorating effects compared with furosemide ([1]; amiloride at 1/10 the dose of furosemide, co-administered with compound A, Zucker fatty rats): at least as potent as those of furosemide | blood dilution (decreases in hematocrit value and the number of red blood cells) caused by compound A [1, 4]: suppressed | increases in circulating serum volume caused by compound A [1, 4]: suppressed | increases in heart-weight caused by compound A [1, 4]: suppressed | suppression of side effects caused by insulin sensitizers, relative to diuretic action ([1]; rats co-treated with amiloride and compound A): more potent than those predicted from its diuretic action

mean weight of thymus [2, 5]: 450.6 mg | mean weight of thymus [2, 6]: 375.9 mg
Structure (SMILES): NS(=O)(=O)c1cc(C(=O)O)c(NCc2ccco2)cc1Cl [Furosemide, furosemide]
Macroscopic Observation, Edema: Subcutaneous tissue (incidence) [2, 5]: 0/12 | Macroscopic Observation, Edema: brown adipose tissue (incidence) [2, 5]: 12/12 | Macroscopic Observation, Edema: interstitial tissue of thymus (incidence) [2, 5]: 0/12 | Macroscopic Observation, Hydrothorax (incidence) [2, 5]: 2/12 | Macroscopic Observation, Edema: Subcutaneous tissue (incidence) [2, 6]: 0/12 | Macroscopic Observation, Edema: brown adipose tissue (incidence) [2, 6]: 10/12 | Macroscopic Observation, Edema: interstitial tissue of thymus (incidence) [2, 6]: 0/12 | Macroscopic Observation, Hydrothorax (incidence) [2, 6]: 0/12 | Decreases in the number of circulating red blood cells produced by compound A [2, 7]: prevented | edema and hydrothorax associated with administration of compound A [2, 7]: suppressed | increases in circulating serum volume elicited by compound A [2, 8]: suppressed | increases in heart-weight elicited by compound A [2, 8]: suppressed | blood dilution (decreases in hematocrit value and the number of red blood cells) caused by compound A [1, 4]: suppressed | increases in circulating serum volume caused by compound A [1, 4]: suppressed | increases in heart-weight caused by compound A [1, 4]: suppressed

mean weight of thymus [2, 9]: 521.4 mg | number of circulating red blood cells ([2]; compound A 200 mg/kg orally, female Wistar rats): Decreases | Ratio against control Heart-Weight ([3]; 3 successive days, n = 5-6): 1.03^a) | Ratio against control Circulating Serum volume ([3]; 3 successive days, n = 5-6, p < 0.05): 1.18^a)* | Ratio against control Circulating Serum volume [3, 10]: 1.30^b)** | Ratio against control Heart-Weight [3, 10]: 1.22^b)** | Circulating serum volume [3, 11]: increased | heart-weight [3, 11]: increased | heart-weight [1, 12]: increases | hematocrit value (dilution of the blood) [1, 12]: decreases | number of red blood cells (dilution of the blood) [1, 12]: decreases
Structure (SMILES): COc1ccc2nc(COc3ccc(CC4SC(=O)NC4=O)cc3)n(C)c2c1.Cl (stereo not shown) [compound A, 5-[4-(6-methoxy-1-methyl-1H-benzimidazol-2-ylmethoxy)benzyl]thiazolidine-2,4-dione hydrochloride]
Macroscopic Observation, Edema: Subcutaneous tissue (incidence) [2, 9]: 1/12 | Macroscopic Observation, Edema: brown adipose tissue (incidence) [2, 9]: 12/12 | Macroscopic Observation, Edema: interstitial tissue of thymus (incidence) [2, 9]: 1/12 | Macroscopic Observation, Hydrothorax (incidence) [2, 9]: 6/12 | blood glucose levels ([1]; orally by gavage, 14 successive days, Zucker fatty rats): decreasing | HOMA-R, an indicator of insulin resistance [1, 12]: remarkably decreased | triglyceride levels [1, 12]: remarkably decreased
